Data on 28 compounds can be found in ChEMBL document CHEMBL2176888, “Structure-activity relationships in human Toll-like receptor 8-active 2,3-diamino-furo[2,3-c]pyridines” (J Med Chem, 2012).

Calls of active or inactive are those of the source. The calls are words filed in the database; no cut-off is given here.

What all share (type): functional, cell-based
One assay concerns the target T1, Toll-like receptor 8 (Homo sapiens, UniProt Q9NR97).
T1 sequence (Q9NR97 whole entry): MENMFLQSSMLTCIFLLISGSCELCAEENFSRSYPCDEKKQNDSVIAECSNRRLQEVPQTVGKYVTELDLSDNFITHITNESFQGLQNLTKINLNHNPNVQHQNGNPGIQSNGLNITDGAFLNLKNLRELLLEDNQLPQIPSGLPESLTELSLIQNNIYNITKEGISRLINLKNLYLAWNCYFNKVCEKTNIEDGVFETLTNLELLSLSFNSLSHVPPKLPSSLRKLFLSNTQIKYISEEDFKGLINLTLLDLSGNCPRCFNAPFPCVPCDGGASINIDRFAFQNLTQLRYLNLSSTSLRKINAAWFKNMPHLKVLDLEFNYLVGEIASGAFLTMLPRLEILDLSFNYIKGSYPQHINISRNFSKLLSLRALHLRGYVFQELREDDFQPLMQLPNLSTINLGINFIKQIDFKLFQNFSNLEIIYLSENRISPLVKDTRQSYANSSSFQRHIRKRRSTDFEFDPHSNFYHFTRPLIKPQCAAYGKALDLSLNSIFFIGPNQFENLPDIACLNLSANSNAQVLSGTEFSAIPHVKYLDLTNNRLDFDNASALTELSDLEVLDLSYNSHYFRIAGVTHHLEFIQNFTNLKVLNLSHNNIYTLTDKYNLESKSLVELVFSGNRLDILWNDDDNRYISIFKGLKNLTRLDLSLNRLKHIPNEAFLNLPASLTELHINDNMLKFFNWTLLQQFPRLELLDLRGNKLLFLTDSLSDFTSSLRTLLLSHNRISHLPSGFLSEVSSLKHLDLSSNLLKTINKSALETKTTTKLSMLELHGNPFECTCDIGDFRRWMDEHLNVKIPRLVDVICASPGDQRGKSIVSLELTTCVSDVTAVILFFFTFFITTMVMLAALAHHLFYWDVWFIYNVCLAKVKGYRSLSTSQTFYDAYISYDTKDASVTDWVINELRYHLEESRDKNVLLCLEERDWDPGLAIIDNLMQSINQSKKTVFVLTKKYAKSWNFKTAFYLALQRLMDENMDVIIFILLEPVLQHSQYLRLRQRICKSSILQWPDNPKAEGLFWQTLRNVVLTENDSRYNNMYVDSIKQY
Description: Agonist activity at human TLR8 expressed in HEK293 cells assessed as induction of NF-kappaB activity by measuring extracellular secreted alkaline phosphatase by HEK-blue reporter gene assay. (In a reporter assay the amount or activity of a reporter protein is the signal.)

Assay [1] concerns the target Toll-like receptor 3 (Homo sapiens) (UniProt O15455). Description: Agonist activity at human TLR3 expressed in HEK293 cells assessed as induction of NF-kappaB activity by measuring extracellular secreted alkaline phosphatase up to 250 uM by HEK-blue reporter gene assay.
Assay [2] addresses T2, Toll-like receptor 7 (Homo sapiens) (UniProt Q9NYK1).
T2 sequence (whole entry): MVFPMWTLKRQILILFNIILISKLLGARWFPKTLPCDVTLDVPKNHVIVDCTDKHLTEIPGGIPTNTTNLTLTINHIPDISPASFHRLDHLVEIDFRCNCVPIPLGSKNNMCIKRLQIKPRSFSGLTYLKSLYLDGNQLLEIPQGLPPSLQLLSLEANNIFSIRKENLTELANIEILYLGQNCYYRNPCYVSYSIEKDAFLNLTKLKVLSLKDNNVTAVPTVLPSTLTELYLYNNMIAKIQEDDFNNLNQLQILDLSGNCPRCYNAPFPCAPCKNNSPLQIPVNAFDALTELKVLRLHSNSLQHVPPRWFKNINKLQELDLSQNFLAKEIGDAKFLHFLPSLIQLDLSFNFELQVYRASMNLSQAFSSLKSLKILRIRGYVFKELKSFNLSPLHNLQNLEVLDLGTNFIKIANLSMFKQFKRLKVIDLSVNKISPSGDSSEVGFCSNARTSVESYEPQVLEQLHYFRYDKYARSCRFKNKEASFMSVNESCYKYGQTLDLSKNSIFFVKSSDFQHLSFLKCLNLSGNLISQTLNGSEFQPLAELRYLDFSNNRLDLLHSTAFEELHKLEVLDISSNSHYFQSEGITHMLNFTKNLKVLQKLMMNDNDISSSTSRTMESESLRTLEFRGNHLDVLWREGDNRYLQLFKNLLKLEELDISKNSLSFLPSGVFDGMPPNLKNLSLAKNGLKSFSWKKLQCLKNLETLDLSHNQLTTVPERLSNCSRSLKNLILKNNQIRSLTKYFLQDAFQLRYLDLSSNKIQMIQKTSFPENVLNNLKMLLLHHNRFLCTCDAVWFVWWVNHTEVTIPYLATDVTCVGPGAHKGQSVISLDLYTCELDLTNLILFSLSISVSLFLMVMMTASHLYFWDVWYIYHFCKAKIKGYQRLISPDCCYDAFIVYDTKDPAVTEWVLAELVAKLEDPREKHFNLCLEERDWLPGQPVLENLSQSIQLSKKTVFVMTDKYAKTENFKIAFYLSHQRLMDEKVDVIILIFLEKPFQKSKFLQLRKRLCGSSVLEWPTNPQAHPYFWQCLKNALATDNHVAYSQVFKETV
Description: Agonist activity at human TLR7 expressed in HEK293 cells assessed as induction of NF-kappaB activity by measuring extracellular secreted alkaline phosphatase up to 250 uM by HEK-blue reporter gene assay.

The target of assay [3] is Toll-like receptor 4 (Homo sapiens) (UniProt O00206). Briefly: Agonist activity at human TLR4 expressed in HEK293 cells assessed as induction of NF-kappaB activity by measuring extracellular secreted alkaline phosphatase up to 250 uM by HEK-blue reporter gene assay.
For assay [4], the target named is T3, Toll-like receptor 9 (Homo sapiens) (UniProt Q9NR96).
T3 sequence (whole entry): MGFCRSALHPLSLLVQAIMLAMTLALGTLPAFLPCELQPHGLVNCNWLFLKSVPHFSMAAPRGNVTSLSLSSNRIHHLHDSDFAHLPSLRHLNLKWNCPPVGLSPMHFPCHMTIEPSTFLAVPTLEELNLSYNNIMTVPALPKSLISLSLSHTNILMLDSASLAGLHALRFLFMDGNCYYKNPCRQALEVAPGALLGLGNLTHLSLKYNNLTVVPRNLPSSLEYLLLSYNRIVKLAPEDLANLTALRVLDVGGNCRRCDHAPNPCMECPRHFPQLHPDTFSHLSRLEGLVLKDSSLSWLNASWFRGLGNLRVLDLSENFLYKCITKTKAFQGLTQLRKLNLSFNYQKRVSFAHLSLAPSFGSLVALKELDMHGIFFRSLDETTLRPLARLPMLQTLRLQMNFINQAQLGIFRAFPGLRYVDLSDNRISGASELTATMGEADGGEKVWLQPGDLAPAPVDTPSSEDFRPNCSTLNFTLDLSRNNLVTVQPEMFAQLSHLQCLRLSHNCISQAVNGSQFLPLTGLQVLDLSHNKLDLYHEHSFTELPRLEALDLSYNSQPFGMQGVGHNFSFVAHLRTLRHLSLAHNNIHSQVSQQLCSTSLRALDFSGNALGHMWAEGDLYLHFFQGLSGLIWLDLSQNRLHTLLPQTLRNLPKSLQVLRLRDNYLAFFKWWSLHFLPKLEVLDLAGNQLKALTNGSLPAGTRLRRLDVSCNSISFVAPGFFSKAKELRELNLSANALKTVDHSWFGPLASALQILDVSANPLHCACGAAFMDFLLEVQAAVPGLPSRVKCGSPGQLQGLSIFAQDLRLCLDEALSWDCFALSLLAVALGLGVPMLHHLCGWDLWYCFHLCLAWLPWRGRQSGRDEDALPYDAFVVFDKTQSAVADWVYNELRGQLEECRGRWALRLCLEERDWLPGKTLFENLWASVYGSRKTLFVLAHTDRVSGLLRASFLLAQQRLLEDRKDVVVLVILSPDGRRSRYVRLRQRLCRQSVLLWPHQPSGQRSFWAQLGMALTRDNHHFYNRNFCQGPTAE
Briefly: Agonist activity at human TLR9 expressed in HEK293 cells assessed as induction of NF-kappaB activity by measuring extracellular secreted alkaline phosphatase up to 250 uM by HEK-blue reporter gene assay.

Assay [5] has as its target T4, Toll-like receptor 8 (Homo sapiens) (UniProt Q9NR97).
T4 sequence (whole entry): T1 sequence (Q9NR97 whole entry)
Briefly: Agonist activity at human TLR8 expressed in HEK293 cells assessed as induction of NF-kappaB activity by measuring extracellular secreted alkaline phosphatase up to 250 uM by HEK-blue reporter gene assay.

For assay [6], the target named is Toll-like receptor 5 (Homo sapiens) (UniProt O60602). Briefly: Agonist activity at human TLR5 expressed in HEK293 cells assessed as induction of NF-kappaB activity by measuring extracellular secreted alkaline phosphatase up to 250 uM by HEK-blue reporter gene assay.
Chain of Toll-like receptor 5 (Homo sapiens) (O60602 whole entry): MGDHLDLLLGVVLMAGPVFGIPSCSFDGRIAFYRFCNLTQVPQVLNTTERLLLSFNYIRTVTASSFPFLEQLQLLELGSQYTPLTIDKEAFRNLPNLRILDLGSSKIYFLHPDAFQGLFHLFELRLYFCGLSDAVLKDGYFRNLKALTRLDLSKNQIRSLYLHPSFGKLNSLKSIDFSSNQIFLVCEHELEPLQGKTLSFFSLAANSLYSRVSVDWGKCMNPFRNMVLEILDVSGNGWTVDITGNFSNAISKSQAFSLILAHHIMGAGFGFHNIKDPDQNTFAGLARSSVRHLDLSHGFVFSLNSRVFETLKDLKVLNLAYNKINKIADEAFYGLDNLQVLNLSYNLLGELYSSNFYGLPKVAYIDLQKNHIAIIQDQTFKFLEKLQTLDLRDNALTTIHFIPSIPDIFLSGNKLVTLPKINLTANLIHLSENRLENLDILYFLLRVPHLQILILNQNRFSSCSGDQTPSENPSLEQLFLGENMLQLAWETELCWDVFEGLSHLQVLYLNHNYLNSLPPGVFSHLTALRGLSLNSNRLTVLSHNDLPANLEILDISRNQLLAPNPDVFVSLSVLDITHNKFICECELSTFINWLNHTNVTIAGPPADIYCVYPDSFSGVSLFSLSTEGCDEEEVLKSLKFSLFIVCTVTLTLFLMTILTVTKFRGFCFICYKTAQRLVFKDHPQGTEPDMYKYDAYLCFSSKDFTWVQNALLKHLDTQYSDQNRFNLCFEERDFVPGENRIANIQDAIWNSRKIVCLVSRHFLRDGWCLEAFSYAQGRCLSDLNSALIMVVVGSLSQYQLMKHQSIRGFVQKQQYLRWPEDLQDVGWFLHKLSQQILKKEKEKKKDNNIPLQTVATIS

Chain of Toll-like receptor 3 (Homo sapiens) (O15455 whole entry): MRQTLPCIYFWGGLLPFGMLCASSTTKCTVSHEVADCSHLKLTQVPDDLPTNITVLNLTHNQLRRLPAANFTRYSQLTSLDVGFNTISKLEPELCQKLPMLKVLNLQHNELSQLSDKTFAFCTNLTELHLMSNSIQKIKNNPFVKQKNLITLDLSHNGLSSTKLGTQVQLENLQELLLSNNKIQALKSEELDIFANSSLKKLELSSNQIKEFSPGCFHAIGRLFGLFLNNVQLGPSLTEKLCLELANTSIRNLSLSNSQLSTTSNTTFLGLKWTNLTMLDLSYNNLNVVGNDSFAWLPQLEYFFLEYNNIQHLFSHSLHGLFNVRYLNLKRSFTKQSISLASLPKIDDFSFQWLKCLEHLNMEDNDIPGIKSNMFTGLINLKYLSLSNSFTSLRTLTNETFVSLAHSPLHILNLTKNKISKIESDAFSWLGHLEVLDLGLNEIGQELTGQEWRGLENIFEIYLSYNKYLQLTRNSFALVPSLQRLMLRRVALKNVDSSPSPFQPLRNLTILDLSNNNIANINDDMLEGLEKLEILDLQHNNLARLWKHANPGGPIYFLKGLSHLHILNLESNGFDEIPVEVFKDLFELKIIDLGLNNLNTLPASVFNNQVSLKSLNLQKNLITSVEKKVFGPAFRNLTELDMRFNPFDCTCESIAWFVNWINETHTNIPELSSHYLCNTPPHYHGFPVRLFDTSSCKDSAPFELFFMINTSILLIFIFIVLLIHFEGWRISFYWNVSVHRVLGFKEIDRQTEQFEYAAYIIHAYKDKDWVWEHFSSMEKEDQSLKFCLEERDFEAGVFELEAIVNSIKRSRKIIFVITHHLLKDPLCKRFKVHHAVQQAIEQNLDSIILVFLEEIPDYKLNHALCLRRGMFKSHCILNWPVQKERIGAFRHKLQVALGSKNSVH
Chain of Toll-like receptor 4 (Homo sapiens) (O00206 whole entry): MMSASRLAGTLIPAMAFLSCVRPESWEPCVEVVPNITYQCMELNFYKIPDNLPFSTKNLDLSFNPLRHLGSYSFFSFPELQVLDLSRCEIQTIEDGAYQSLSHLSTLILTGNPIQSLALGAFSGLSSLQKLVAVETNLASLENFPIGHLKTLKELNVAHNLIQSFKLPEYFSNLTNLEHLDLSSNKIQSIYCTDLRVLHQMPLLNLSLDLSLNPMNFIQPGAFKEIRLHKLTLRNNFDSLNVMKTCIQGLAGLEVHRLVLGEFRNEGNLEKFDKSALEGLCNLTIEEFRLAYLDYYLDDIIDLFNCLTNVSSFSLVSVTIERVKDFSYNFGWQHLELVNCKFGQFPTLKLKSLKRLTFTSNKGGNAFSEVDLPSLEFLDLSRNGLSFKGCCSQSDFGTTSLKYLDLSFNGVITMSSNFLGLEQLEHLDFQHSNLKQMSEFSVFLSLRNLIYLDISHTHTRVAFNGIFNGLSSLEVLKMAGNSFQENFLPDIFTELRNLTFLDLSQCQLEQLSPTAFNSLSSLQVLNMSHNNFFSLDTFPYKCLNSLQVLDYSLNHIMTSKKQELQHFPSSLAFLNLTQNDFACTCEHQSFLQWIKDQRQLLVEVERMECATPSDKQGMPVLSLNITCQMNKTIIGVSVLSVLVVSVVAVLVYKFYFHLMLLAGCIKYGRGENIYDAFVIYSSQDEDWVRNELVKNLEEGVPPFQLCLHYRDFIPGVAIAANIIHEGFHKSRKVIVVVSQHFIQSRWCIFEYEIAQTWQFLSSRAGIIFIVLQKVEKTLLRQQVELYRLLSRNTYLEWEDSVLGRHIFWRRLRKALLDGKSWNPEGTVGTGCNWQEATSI

Take `CCCCCNc1oc2c(C)ncc(CO)c2c1Nc1cccc([N+](=O)[O-])c1`: on Toll-like receptor 8 (read-out: EC50), the EC50 (usually the concentration giving half of the maximal effect) amounted to 0.85 µM.

As to `Cc1ncc(CO)c2c(Nc3ccccn3)c(NC3CCCCC3)oc12`, the EC50 on Toll-like receptor 8 (read-out: EC50) stood at 6.93 µM.

As for `c1ccc(CNc2c(-c3ccncc3)nc3ccccn23)cc1`, the result in assay [1], in assay [2], in assay [3], in assay [4], in assay [5] and in assay [6] was inactive.

`Nc1nccn2c(NC3CCCCC3)c(-c3ccccc3)nc12`: the result in assay [1], in assay [2], in assay [3], in assay [4], in assay [5] and in assay [6] was inactive.

In the case of `CCCCCNc1oc2c(C)ncc(CO)c2c1Nc1ccccc1`, the half-maximal effective concentration (EC50) on Toll-like receptor 8 (read-out: EC50) was determined as 2.25 µM.

In the case of `Oc1ccccc1-c1nc2cnccn2c1NC1CCCCC1`, the outcome in assay [1], in assay [2], in assay [3], in assay [4], in assay [5] and in assay [6] was inactive.

Consider `Oc1ccccc1-c1nc2cnccn2c1NCc1ccccc1`, for which the result in assay [1], in assay [2], in assay [3], in assay [4], in assay [5] and in assay [6] was inactive.

As for `Oc1ccccc1-c1nc2ccccn2c1NCc1ccccc1`, the outcome in assay [1], in assay [2], in assay [3], in assay [4], in assay [5] and in assay [6] was inactive.

As for `Cc1ncc(CO)c2c(Nc3ccccc3)c(NCc3ccccc3)oc12`, the EC50 at Toll-like receptor 8 (read-out: EC50) was found to be 1.68 µM.

As to `Cc1ncc(CO)c(-c2nc3ccccn3c2NC2CCCCC2)c1OCc1ccccc1`, the half-maximal effective concentration (EC50) result on Toll-like receptor 8 (hek293) is “Not Active”.

On to `CC(C)(C)Nc1c(-c2ccccc2O)nc2cnccn12`, for which the outcome in assay [1], in assay [2], in assay [3], in assay [4], in assay [5] and in assay [6] was inactive.

Take `Cc1ncc(CO)c2c(Nc3cnccn3)c(NC3CCCCC3)oc12`: the EC50 on Toll-like receptor 8 (read-out: EC50) came to 10.6 µM.

On to `Cc1ncc(CO)c2c(Nc3ccccn3)c(N)oc12`, for which the 50% effective concentration (EC50) entry on Toll-like receptor 8 (hek293) is given as “Not Active”.

As for `Cc1ncc(CO)c2c(Nc3ccccn3)c(NC(C)(C)C)oc12`, the concentration giving a half-maximal response (EC50) entry on Toll-like receptor 8 (hek293) is recorded as “Not Active”.

As for `Cc1ncc(CO)c2c(Nc3ccccn3)c(NCCC(=O)OC(C)(C)C)oc12`, at Toll-like receptor 8 (read-out: EC50), the EC50 stood at 7.64 µM.

For `Cc1ncc(CO)c2c(Nc3ccccn3)c(NC(C)C)oc12`, on Toll-like receptor 8 (hek293), the concentration for a half-maximal effect (EC50) entry was “Not Active”.

As to `CCOC(=O)CNc1oc2c(C)ncc(CO)c2c1Nc1ccccn1`, the EC50 entry at Toll-like receptor 8 (hek293) is on record as “Not Active”.

Consider `Cc1ncc(CO)c2c(Nc3cnccn3)c(NCc3ccccc3)oc12`, for which the EC50 on Toll-like receptor 8 (read-out: EC50) amounted to 9.79 µM.

For the compound `CCCCCNc1oc2c(C)ncc(CO)c2c1Nc1cccc(F)c1`, the EC50 at Toll-like receptor 8 (read-out: EC50) stood at 0.37 µM.

As for `Cc1ncc(CO)c2c(Nc3ccccn3)c(NCCCCCCNc3oc4c(C)ncc(CO)c4c3Nc3ccccn3)oc12`, on Toll-like receptor 8 (read-out: EC50), the EC50 was found to be 3.37 µM.

As for `Cc1ncc(CO)c2c(Nc3ccccn3)c(N[C@@H](C)c3ccccc3)oc12`, the EC50 at Toll-like receptor 8 (read-out: EC50) is 4.27 µM.

Consider `Cc1ncc(CO)c2c(Nc3cnccn3)c(NC(C)(C)C)oc12`, for which the EC50 entry on Toll-like receptor 8 (hek293) is on record as “Not Active”.

Consider `Cc1ncc(CO)c2c(Nc3ccccn3)c(NCCN3CCOCC3)oc12`, for which, on Toll-like receptor 8 (hek293), the EC50 entry is listed as “Not Active”.

Turning to `CCOP(=O)(CNc1oc2c(C)ncc(CO)c2c1Nc1ccccn1)OCC`, the half-maximal effective concentration (EC50) entry on Toll-like receptor 8 (hek293) was “Not Active”.

With `CCCC(C)Nc1oc2c(C)ncc(CO)c2c1Nc1ccccn1` (stereo not drawn), the concentration for a half-maximal effect (EC50) on Toll-like receptor 8 (read-out: EC50) is 9.01 µM.

Consider `Cc1ncc(CO)c2c(Nc3ccccn3)c(NC(C)(C)CC(C)(C)C)oc12`, for which, at Toll-like receptor 8 (hek293), the EC50 result is listed as “Not Active”.

With `COc1ccc(Nc2oc3c(C)ncc(CO)c3c2Nc2ccccn2)cc1`, the 50% effective concentration (EC50) entry on Toll-like receptor 8 (hek293) is “Not Active”.

In the case of `Cc1cccc(Cl)c1Nc1oc2c(C)ncc(CO)c2c1Nc1ccccn1`, on Toll-like receptor 8 (hek293), the EC50 entry is “Not Active”.
